# Literature values as cited in patent US20030199496A1, “Pharmaceutical compositions containing alpha3beta4 nicotinic receptor antagonists and methods of their use” (priority 2002, published 2003).
# System: Purkinje nerve cells
structure (smiles),measurement,setting,value
"COCC[C@H]1CC2CN3CCc4c([nH]c5ccccc45)[C@](C(=O)OC)(C2)[C@H]13 [18-MC, 18-methoxycoronaridine]","neurotoxicity, especially on Purkinje nerve cells",at certain doses,devoid of these undesirable characteristics
same,tremors,human and animal subjects,devoid of these undesirable characteristics
